# Test results reported in ChEMBL document CHEMBL4507259 (2021).
# How the values were obtained:
# DU-145 = test: DU-145 Proliferation; format: functional, cell-based; settings: Homo sapiens
# [1] = target: T1, Alpha-1B adrenergic receptor (Homo sapiens) (UniProt P35368); test: alpha 1B (h) CEREP ligand profiling; settings: filed as antagonist, Compound concentration 10.0 uM
# T1 sequence (whole entry): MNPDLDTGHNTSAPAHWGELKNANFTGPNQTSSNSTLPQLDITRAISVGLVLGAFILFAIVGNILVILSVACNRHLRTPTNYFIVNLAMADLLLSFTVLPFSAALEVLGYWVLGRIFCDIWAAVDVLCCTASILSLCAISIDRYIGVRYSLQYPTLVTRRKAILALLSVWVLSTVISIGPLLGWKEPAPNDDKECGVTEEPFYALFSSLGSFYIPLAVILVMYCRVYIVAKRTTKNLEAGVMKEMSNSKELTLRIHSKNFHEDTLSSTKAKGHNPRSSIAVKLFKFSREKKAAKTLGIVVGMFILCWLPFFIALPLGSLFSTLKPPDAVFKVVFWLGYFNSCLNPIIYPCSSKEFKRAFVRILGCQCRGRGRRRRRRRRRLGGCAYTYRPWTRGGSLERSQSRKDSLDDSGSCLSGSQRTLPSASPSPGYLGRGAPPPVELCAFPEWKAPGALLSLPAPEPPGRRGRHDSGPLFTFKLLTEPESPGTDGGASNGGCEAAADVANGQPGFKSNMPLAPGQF
# [2] = target: T2, 5-hydroxytryptamine receptor 2C (Homo sapiens) (UniProt P28335); test: 5-HT2C (h) CEREP ligand profiling; settings: filed as antagonist, Compound concentration 10.0 uM
# T2 sequence (whole entry): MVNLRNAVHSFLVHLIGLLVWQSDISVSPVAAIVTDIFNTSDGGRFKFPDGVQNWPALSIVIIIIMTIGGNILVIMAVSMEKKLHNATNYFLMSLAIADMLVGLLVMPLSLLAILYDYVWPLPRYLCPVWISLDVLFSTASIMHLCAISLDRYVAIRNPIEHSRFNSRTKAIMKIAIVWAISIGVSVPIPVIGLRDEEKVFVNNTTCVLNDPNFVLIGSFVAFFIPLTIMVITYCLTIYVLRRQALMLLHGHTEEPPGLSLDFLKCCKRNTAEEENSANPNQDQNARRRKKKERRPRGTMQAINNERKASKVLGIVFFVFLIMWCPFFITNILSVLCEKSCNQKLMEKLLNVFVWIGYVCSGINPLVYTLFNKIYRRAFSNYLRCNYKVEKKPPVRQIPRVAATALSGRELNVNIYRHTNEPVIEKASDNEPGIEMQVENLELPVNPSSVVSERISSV
# [3] = target: Histamine H2 receptor (Homo sapiens) (UniProt P25021); test: H2 (h) CEREP ligand profiling; settings: filed as antagonist, Compound concentration 10.0 uM
# [4] = test system: Tyrosine-protein kinase ABL1 (Homo sapiens), P00519 [Q252H]; settings: Compound concentration 1000.0 nM
# [5] = target: Activin receptor type-1B (Homo sapiens) (UniProt P36896); settings: Compound concentration 1000.0 nM
# [6] = target: Calcium/calmodulin-dependent protein kinase type 1G (Homo sapiens) (UniProt Q96NX5); settings: Compound concentration 1000.0 nM
# [7] = target: Cyclin-dependent kinase 2 (Homo sapiens) (UniProt P24941); settings: Compound concentration 1000.0 nM
# [8] = target: Serine/threonine-protein kinase 17B (Homo sapiens) (UniProt O94768); settings: Compound concentration 1000.0 nM
# [9] = target: Fibroblast growth factor receptor 1 (Homo sapiens) (UniProt P11362); settings: Compound concentration 1000.0 nM
# [10] = target: Tyrosine-protein kinase FRK (Homo sapiens) (UniProt P42685); settings: Compound concentration 1000.0 nM
# [11] = target: Serine/threonine-protein kinase haspin (Homo sapiens) (UniProt Q8TF76); settings: Compound concentration 1000.0 nM
# [12] = target: Mitogen-activated protein kinase 10 (Homo sapiens) (UniProt P53779); settings: Compound concentration 1000.0 nM
# [13] = test system: Mast/stem cell growth factor receptor Kit (Homo sapiens), P10721 [A829P]; settings: Compound concentration 1000.0 nM
# [14] = target: Mast/stem cell growth factor receptor Kit (Homo sapiens) (UniProt P10721); settings: Compound concentration 1000.0 nM
# [15] = target: Serine/threonine-protein kinase LATS1 (Homo sapiens) (UniProt O95835); settings: Compound concentration 1000.0 nM
# [16] = target: Serine/threonine-protein kinase LATS2 (Homo sapiens) (UniProt Q9NRM7); settings: Compound concentration 1000.0 nM
# [17] = target: Mitogen-activated protein kinase kinase kinase kinase 3 (Homo sapiens) (UniProt Q8IVH8); settings: Compound concentration 1000.0 nM
# [18] = target: Serine/threonine-protein kinase NIM1 (Homo sapiens) (UniProt Q8IY84); settings: Compound concentration 1000.0 nM
# [19] = target: Cyclin-dependent kinase 17 (Homo sapiens) (UniProt Q00537); settings: Compound concentration 1000.0 nM
# [20] = test system: Phosphatidylinositol 4,5-bisphosphate 3-kinase catalytic subunit alpha isoform (Homo sapiens), P42336 [Q546K]; settings: Compound concentration 1000.0 nM
# [21] = target: Protein kinase C eta type (Homo sapiens) (UniProt P24723); settings: Compound concentration 1000.0 nM
# [22] = target: Protein-tyrosine kinase 2-beta (Homo sapiens) (UniProt Q14289); settings: Compound concentration 1000.0 nM
# [23] = target: Receptor-interacting serine/threonine-protein kinase 1 (Homo sapiens) (UniProt Q13546); settings: Compound concentration 1000.0 nM
# [24] = target: Proto-oncogene tyrosine-protein kinase ROS (Homo sapiens) (UniProt P08922); settings: Compound concentration 1000.0 nM
# [25] = target: Ribosomal protein S6 kinase alpha-2 (Homo sapiens) (UniProt Q15349); settings: Compound concentration 1000.0 nM
# [26] = target: Testis-specific serine/threonine-protein kinase 1 (Homo sapiens) (UniProt Q9BXA7); settings: Compound concentration 1000.0 nM
# [27] = target: Tyrosine-protein kinase TXK (Homo sapiens) (UniProt P42681); settings: Compound concentration 1000.0 nM
# [28] = target: Non-receptor tyrosine-protein kinase TYK2 (Homo sapiens) (UniProt P29597); settings: Compound concentration 1000.0 nM
# [29] = target: 5-hydroxytryptamine receptor 1E (Homo sapiens) (UniProt P28566); settings: Compound concentration 10.0 uM
# [30] = target: D(1B) dopamine receptor (Homo sapiens) (UniProt P21918); settings: Compound concentration 10.0 uM
# [31] = target: Sigma non-opioid intracellular receptor 1 (Homo sapiens) (UniProt Q99720); settings: Compound concentration 10.0 uM
# Chain of Activin receptor type-1B (Homo sapiens) (P36896 whole entry): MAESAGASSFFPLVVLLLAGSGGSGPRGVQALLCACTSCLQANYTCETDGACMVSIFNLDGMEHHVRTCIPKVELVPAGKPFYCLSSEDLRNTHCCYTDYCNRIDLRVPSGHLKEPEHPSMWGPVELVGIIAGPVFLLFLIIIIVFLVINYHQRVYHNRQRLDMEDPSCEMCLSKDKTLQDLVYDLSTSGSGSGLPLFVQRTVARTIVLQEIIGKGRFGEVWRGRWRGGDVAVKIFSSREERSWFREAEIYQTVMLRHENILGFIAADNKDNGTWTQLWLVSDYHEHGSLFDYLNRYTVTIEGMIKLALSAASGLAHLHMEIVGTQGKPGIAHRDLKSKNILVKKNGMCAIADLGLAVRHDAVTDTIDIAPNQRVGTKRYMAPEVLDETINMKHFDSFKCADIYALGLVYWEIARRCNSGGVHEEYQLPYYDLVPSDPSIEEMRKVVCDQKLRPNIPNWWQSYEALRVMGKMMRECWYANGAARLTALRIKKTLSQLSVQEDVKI
# Chain of Proto-oncogene tyrosine-protein kinase ROS (Homo sapiens) (P08922 whole entry): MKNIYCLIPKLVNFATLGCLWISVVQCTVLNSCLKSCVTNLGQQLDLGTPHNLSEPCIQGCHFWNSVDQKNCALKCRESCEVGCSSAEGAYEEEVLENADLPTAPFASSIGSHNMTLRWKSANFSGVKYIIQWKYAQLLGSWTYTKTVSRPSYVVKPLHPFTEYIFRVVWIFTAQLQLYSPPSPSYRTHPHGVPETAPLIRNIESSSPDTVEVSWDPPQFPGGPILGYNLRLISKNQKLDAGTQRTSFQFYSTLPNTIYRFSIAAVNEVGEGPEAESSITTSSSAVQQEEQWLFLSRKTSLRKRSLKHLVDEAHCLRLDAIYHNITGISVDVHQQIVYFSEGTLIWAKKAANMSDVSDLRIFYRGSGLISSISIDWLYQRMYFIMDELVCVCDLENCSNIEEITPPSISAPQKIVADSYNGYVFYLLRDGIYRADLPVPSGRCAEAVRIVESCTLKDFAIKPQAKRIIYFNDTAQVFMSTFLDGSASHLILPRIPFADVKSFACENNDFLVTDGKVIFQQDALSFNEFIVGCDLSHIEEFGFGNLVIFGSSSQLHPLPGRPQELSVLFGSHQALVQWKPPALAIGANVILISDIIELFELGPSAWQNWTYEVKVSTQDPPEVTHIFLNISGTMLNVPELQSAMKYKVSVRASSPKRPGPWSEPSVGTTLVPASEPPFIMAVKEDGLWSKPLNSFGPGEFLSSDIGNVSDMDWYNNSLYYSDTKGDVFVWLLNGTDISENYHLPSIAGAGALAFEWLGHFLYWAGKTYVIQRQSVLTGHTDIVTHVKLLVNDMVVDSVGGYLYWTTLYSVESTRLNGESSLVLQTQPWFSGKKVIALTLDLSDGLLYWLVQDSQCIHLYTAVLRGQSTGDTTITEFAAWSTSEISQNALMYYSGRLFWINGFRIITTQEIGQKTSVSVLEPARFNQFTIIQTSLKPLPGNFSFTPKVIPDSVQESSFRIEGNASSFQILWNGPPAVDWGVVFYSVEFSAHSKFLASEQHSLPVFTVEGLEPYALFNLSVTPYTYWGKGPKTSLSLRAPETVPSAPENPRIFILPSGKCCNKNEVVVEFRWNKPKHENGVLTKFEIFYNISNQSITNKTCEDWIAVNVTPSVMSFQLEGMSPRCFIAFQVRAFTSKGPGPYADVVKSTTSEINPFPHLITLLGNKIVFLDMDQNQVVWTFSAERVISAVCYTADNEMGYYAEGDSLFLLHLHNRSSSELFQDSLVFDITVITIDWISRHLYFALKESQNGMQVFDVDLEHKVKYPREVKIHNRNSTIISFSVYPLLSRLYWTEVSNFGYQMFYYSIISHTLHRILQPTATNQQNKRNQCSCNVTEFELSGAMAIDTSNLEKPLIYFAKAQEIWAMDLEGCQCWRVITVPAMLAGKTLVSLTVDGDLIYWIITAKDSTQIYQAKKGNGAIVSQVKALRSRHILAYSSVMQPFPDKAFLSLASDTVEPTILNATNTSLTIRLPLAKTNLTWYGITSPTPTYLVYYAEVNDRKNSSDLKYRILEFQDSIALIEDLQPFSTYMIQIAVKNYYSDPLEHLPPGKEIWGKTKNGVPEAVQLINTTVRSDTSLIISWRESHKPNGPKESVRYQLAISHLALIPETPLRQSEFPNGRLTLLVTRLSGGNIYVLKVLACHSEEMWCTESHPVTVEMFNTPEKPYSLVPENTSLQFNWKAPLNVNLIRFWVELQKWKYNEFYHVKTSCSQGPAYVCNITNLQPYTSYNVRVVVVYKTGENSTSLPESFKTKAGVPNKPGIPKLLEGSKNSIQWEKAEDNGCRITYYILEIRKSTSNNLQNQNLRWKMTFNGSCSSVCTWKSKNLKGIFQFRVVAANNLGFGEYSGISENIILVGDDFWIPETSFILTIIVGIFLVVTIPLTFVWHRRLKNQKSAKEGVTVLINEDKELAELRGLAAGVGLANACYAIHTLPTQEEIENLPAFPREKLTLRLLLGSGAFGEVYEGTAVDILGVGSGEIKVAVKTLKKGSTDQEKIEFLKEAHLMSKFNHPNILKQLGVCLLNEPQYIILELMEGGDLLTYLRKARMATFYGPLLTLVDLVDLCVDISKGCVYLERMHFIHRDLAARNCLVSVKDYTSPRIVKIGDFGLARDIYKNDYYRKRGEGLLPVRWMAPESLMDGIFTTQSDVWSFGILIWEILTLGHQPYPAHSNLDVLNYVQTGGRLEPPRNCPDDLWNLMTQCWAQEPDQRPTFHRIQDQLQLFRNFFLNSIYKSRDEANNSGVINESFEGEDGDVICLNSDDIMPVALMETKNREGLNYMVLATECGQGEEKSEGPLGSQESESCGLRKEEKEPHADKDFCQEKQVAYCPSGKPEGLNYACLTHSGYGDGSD
# Chain of Mitogen-activated protein kinase 10 (Homo sapiens) (P53779 whole entry): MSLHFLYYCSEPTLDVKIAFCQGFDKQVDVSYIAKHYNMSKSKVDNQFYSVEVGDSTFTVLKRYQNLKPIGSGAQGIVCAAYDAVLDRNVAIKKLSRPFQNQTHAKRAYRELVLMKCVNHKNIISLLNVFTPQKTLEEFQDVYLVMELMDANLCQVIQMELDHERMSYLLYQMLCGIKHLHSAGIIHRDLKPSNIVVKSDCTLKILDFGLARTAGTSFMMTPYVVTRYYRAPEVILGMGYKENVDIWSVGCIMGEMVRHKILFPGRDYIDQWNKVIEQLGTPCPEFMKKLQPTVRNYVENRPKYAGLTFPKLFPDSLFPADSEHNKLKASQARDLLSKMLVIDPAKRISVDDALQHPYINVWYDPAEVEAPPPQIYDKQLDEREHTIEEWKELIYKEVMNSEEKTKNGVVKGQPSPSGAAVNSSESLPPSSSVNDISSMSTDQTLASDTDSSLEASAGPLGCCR
# Chain of Serine/threonine-protein kinase haspin (Homo sapiens) (Q8TF76 whole entry): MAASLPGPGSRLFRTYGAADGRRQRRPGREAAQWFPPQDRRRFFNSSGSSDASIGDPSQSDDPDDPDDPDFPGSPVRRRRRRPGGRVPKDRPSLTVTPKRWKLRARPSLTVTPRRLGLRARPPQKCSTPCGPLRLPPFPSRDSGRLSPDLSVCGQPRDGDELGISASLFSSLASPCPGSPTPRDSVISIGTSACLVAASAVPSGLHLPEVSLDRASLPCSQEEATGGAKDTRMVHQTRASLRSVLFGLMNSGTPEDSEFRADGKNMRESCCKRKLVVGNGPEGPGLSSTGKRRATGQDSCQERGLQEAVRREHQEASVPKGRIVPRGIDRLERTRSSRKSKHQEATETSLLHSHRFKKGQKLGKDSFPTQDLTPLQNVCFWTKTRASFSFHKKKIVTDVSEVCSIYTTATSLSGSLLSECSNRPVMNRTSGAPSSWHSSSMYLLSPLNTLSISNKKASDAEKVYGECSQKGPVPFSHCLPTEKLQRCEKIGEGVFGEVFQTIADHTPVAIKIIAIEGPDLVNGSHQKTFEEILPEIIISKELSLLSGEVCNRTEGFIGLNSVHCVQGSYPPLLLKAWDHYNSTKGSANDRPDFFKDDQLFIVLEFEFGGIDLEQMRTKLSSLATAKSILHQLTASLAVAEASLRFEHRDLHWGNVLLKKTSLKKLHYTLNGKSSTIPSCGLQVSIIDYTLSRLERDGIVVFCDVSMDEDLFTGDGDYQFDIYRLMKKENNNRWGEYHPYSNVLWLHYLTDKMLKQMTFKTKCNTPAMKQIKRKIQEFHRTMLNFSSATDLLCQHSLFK
# Chain of Mast/stem cell growth factor receptor Kit (Homo sapiens) (P10721 whole entry): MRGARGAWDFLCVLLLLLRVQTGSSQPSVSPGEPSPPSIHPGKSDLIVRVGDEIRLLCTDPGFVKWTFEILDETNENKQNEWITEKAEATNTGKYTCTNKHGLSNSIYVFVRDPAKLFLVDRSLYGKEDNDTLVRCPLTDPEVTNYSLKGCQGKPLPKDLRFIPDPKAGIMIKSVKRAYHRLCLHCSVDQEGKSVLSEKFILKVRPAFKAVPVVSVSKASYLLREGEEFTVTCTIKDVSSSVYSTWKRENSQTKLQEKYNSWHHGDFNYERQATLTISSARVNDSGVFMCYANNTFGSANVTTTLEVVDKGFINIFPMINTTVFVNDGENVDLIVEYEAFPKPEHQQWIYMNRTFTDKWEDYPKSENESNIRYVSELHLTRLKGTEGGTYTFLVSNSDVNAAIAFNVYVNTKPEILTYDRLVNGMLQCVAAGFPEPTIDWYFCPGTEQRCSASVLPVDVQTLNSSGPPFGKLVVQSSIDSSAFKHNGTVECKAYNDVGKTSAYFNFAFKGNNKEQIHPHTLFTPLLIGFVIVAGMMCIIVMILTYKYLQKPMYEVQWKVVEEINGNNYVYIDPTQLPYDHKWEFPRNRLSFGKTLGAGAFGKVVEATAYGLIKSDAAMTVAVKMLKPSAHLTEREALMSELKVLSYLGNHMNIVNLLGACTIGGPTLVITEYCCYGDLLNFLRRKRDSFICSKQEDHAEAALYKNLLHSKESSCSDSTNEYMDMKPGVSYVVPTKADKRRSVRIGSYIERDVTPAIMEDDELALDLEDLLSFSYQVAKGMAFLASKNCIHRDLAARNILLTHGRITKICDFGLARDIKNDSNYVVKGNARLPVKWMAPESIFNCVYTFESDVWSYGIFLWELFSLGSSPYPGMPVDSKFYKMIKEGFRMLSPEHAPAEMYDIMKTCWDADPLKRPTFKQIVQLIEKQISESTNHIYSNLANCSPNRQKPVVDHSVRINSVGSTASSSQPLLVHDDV
SMILES,IC50 (DU-145),inhibition [1],inhibition [2],inhibition [3],residual activity [4],residual activity [5],residual activity [6],residual activity [7],residual activity [8],residual activity [9],residual activity [10],residual activity [11],residual activity [12],residual activity [13],residual activity [14],residual activity [15],residual activity [16],residual activity [17],residual activity [18],residual activity [19],further results
CNC(=O)Nc1ccc2c(c1)CC[C@@]21OC(=O)N(CC(=O)N(Cc2ccc(F)cc2)[C@@H](C)C(F)(F)F)C1=O [A-485],> 10 µM (not active),4%,-2%,-9%,81%,86%,100%,100%,100%,82%,94%,100%,73%,79%,97%,60%,47%,76%,71%,96%,residual activity [20]: 79%; residual activity [21]: 93%; residual activity [22]: 73%; residual activity [23]: 100%; residual activity [24]: 80%; residual activity [25]: 76%; residual activity [26]: 84%; residual activity [27]: 78%; residual activity [28]: 86%; inhibition [29]: 4.23%; inhibition [30]: 21.1%; inhibition [31]: 34.5%
CNC(=O)Nc1ccc2c(c1)[C@@]1(CC2)OC(=O)N(CC(=O)N(Cc2ccc(F)cc2)[C@@H](C)C(F)(F)F)C1=O [A-486],> 10 µM (not active),-6%,-7%,6%,97%,100%,100%,100%,77%,84%,95%,83%,67%,100%,89%,59%,68%,89%,76%,88%,residual activity [20]: 81%; residual activity [21]: 87%; residual activity [22]: 83%; residual activity [23]: 93%; residual activity [24]: 87%; residual activity [25]: 87%; residual activity [26]: 100%; residual activity [27]: 100%; residual activity [28]: 68%; inhibition [29]: 0.33%; inhibition [30]: 20.5%; inhibition [31]: 17.7%
